Source: patent US20240368125A1, “NOVEL PYRAZINYL-TRIAZOLE COMPOUNDS AS PESTICIDES” (Bayer Aktiengesellschaft, priority 2021, published 2024)

Columns and labels:
Assay type in all cases: in vivo
[1] = test system: Rhipicephalus (Boophilus) microplus larvae (strain Parkhurst, resistant against synthetic pyrethroids); assay: Rhipicephalus (Boophilus) microplus in-vitro contact test, larval cattle tick; conditions: Rhipicephalus microplus; 1 μg/cm^2 (=100 g/ha), after 48 hours; read-out: efficacy (larvae dead or moribund)
Description: Rhipicephalus (Boophilus) Microplus—In-Vitro Contact Tests Larval Cattle Tick (Strain Parkhurst, Resistant Against Synthetic Pyrethroids
(§1) 9 mg compound is solved in 1 mL acetone and diluted with acetone to the desired concentration. 250 μL of the test solution is filled in 25 mL glass test tubes and homogeneously distributed on the inner walls by rotation and tilting on a shaking device (2 h at 30 rpm). With a compound concentration of 900 ppm, an inner surface of 44.7 cm^2 and a homogeneous distribution, a dose of 5 μg/cm^2 is achieved.
After the solvent has evaporated, each test tube is filled with 20-50 cattle tick larvae (Rhipicephalus microplus), closed with a perforated lid and incubated in a horizontal position at 85% relative humidity and 27° C. in an incubator. After 48 hours efficacy is determined. The larvae are patted on the ground of the tubes and negative geotactic behavior is recorded.

[2] = test system: adult engorged female ticks (Rhipicephalus microplus); assay: Rhipicephalus (Boophilus) microplus injection test; conditions: 4 μg/tick, after 7 days
Description: Rhipicephalus (Boophilus) Microplus—Injection Test
(§2) Solvent: Dimethyl Sulfoxide
To produce a suitable preparation of active compound, 10 mg of active compound are dissolved in 0.5 mL solvent, and the concentrate is diluted with solvent to the desired concentration.
Five adult engorged female ticks (Rhipicephalus microplus) are injected with 1 μL compound solution into the abdomen. The ticks are transferred into replica plates and incubated in a climate chamber.
After 7 days egg deposition of fertile eggs is monitored. Eggs where fertility is not visible are stored in a climate chamber till hatching after about 42 days. An efficacy of 100% means all eggs are infertile; 0% means all eggs are fertile.

[3] = test system: adult cat fleas (Ctenocephalides felis); assay: Ctenocephalides felis in-vitro contact test, adult cat flea; conditions: Ctenocephalides felis; 1 μg/cm^2 (=100 g/ha), after 48 hours; read-out: efficacy (fleas dead or moribund)
Description: Ctenocephalides Felis—In-Vitro Contact Tests Adult Cat Flea
as §1
(§3) After the solvent has evaporated, each test tube is filled with 5-10 adult cat fleas (Ctenocephalides felis), closed with a perforated lid and incubated in a lying position at room temperature and relative humidity. After 48 hours efficacy is determined. The fleas are patted on the ground of the tubes and are incubated on a heating plate at 45-50° C. for at most 5 minutes. Immotile or uncoordinated moving fleas, which are not able to escape the heat by climbing upwards, are marked as dead or moribund.
An efficacy of 100% means all fleas are dead or moribund; 0% means no fleas are dead or moribund.

[4] = test system: adult unfed cat fleas (Ctenocephalides felis); assay: Ctenocephalides felis oral test; conditions: 48 h, 100 ppm in citrated cattle blood, after 2 days
Description: Ctenocephalides felis—Oral Test
as §2
To produce a suitable preparation of active compound, 10 mg of active compound are dissolved in 0.5 mL solvent, and the concentrate is diluted with citrated cattle blood to the desired concentration.
Approximately 20 adult unfed cat fleas (Ctenocephalides felis) are placed in a flea chamber whose top and bottom is covered with gauze. A chamber whose bottom is sealed with parafilm, is filled with the blood-compound solution and placed on top of the flea chamber, so that the fleas can suck the blood. The blood chamber is heated to 37° C. whereas the flea chamber is kept at room temperature.
After 2 days mortality in % is determined. 100% means all the fleas have been killed; 0% means none of the fleas have been killed.

[5] = test system: adult brown dog ticks (Rhipicephalus sanguineus); assay: Rhipicephalus sanguineus in-vitro contact test, adult brown dog ticks; conditions: Rhipicephalus sanguineus; 1 μg/cm^2 (=100 g/ha), after 48 hours; read-out: efficacy (ticks dead or moribund)
Description: Rhipicephalus sanguineus—In-Vitro Contact Tests with Adult Brown Dog Ticks
as §1
as §3, with “brown dog ticks (Rhipicephalus sanguineus),” for “cat fleas (Ctenocephalides felis),”, “ticks” for “fleas”, “ticks,” for “fleas,”
An efficacy of 100% means all ticks are dead or moribund; 0% means no ticks are dead or moribund.

[6] = test system: green peach aphid (Myzus persicae); assay: Myzus persicae spray test (MYZUPE); conditions: in Brassica rapa, foliar, 120 h
Description: Myzus persicae—Spray Test
(§4) Solvent: 78.0 parts by weight acetone • 1.5 parts by weight dimethylformamide
(§5) Emulsifier: alkylarylpolyglycol ether
(§6) To produce a suitable preparation of active compound, 1 part by weight of active compound is mixed with the stated amount of solvents and is diluted with water, containing an emulsifier concentration of 1000 ppm, to the desired concentration. Further test concentrations are prepared by dilution with emulsifier containing water.
Chinese cabbage (Brassica pekinensis) leaf disks infected with all instars of the green peach aphid (Myzus persicae), are sprayed with a preparation of the active ingredient of the desired concentration.
After 5 days mortality in % is determined. 100% means all aphids have been killed and 0% means none of the aphids have been killed.
Myzus persicae—Spray Test (MYZUPE
After the specified period of time, mortality in % is determined. 100% means all aphids have been killed and 0% means none of the aphids have been killed.

[7] = test system: larvae of the southern green stink bug (Nezara viridula); assay: Nezara viridula spray test; conditions: Nezara viridula, in Hordeum vulgare, 96 h
Description: Nezara viridula—Spray Test
(§7) Solvent: 78.0 parts by weight of acetone • • 1.5 parts by weight of dimethylformamide
as §5
as §6, with “solvent,” for “solvents”, “and the concentrate” for “and”
Barley plants (Hordeum vulgare) are sprayed with a test solution containing the desired concentration of the active ingredient and are infested with larvae of the southern green stink bug (Nezara viridula).
After 4 days mortality in % is determined. 100% means all the stink bugs have been killed; 0% means none of the stink bugs have been killed.

[8] = test system: brown planthopper (Nilaparvata lugens); assay: Nilaparvata lugens spray test; conditions: Nilaparvata lugens, in Oryza sativa, 96 h
Description: Nilaparvata lugens—Spray Test
as §7, §5, §6
Rice plants (Oryza sativa) are sprayed with a preparation of the active ingredient of the desired concentration and the plants are infested with the brown planthopper (Nilaparvata lugens).
After 4 days mortality in % is determined. 100% means all planthoppers have been killed and 0% means none of the planthoppers have been killed.

[9] = test system: fall armyworm larvae (Spodoptera frugiperda); assay: Spodoptera frugiperda spray test (SPODFR); conditions: in Zea mays, 168 h
Description: Spodoptera frugiperda—Spray Test
as §4, §5, §6
Maize (Zea mays) leaf sections are sprayed with a preparation of the active ingredient of the desired concentration. Once dry, the leaf sections are infested with fall armyworm larvae (Spodoptera frugiperda).
After 7 days mortality in % is determined. 100% means all caterpillars have been killed and 0% means none of the caterpillars have been killed.
Spodoptera frugiperda—Spray Test (SPODFR
After the specified period of time, mortality in % is determined. 100% means all caterpillars have been killed and 0% means none of the caterpillars have been killed.

[10] = test system: larvae of the banded cucumber beetle (Diabrotica balteata); assay: Diabrotica balteata spray test; conditions: Diabrotica balteata, 168 h; 100 g/ha (=32 μg/well), wheat seeds, after 7 days; read-out: efficacy (seedlings grown)
Description: Diabrotica balteata—Spray Test
as §7, §5
as §6, with “solvent,” for “solvents”, “and the concentrate” for “and”
Soaked wheat seeds (Triticum aestivum) are placed in a multiple well plate filled with agar and some water and are incubated for 1 day to germinate (5 seeds per well). The germinated wheat seeds are sprayed with a test solution containing the desired concentration of the active ingredient. Afterwards each unit is infected with 10-20 larvae of the banded cucumber beetle (Diabrotica balteata).
After 7 days efficacy in % is determined. 100% means all the seedlings have grown up like in the untreated, uninfected control; 0% means none of the seedlings have grown.

Cc1nc([C@H](C)NC(=O)c2cc(C(F)(F)F)cc(C(F)(F)F)c2)n(-c2cnc(C(=O)N(C)C3CC3)cn2)n1 [Example I-001]
90%: mortality at 100 g/ha [6]
100%: pest or weed control at 1 µg/cm2 [1] | efficacy (infertile eggs) [2] | pest or weed control at 1 µg/cm2 [3] | mortality at 100 ppm [4] | pest or weed control at 1 µg/cm2, 100 g/ha [5] | mortality at 500 g/ha [7] | mortality at 500 g/ha [8] | mortality at 100 g/ha [9]

C[C@H](NC(=O)c1cc(OC(F)(F)F)cc(C2CC2)c1)c1ncnn1-c1cnc(C(=O)N(C)C2CC2)cn1 [Example I-003]
100%: pest or weed control at 1 µg/cm2 [1] | efficacy (infertile eggs) [2] | pest or weed control at 1 µg/cm2 [3] | mortality at 100 ppm [4] | pest or weed control at 32 µg/disc, 100 g/ha [10] | mortality at 100 g/ha [9]
90%: mortality at 100 g/ha [6]
80%: pest or weed control at 1 µg/cm2, 100 g/ha [5]

C[C@H](NC(=O)c1cc(C(F)(F)F)cc(C(F)(F)F)c1)c1ncnn1-c1cnc(C(=O)N(C)C)cn1 [Example I-005]
100%: pest or weed control at 1 µg/cm2 [1] | efficacy (infertile eggs) [2] | pest or weed control at 1 µg/cm2 [3] | mortality at 100 ppm [4] | pest or weed control at 1 µg/cm2, 100 g/ha [5] | mortality at 100 g/ha [6] | mortality at 500 g/ha [8] | mortality at 100 g/ha [9]

CCN(C)C(=O)c1cnc(-n2ncnc2[C@H](C)NC(=O)c2cc(C(F)(F)F)cc(C(F)(F)F)c2)cn1 [Example I-006]
100%: pest or weed control at 1 µg/cm2 [1] | efficacy (infertile eggs) [2] | pest or weed control at 1 µg/cm2 [3] | mortality at 100 ppm [4] | pest or weed control at 1 µg/cm2, 100 g/ha [5] | mortality at 100 g/ha [6] | mortality at 500 g/ha [8] | mortality at 100 g/ha [9]
